Experimental data: ChEMBL document CHEMBL5518246, “Discovery of Small Molecule Interleukin 17A Inhibitors with Novel Binding Mode and Stoichiometry: Optimization of DNA-Encoded Chemical Library Hits to In Vivo Active Compounds” (J Med Chem, 2024)
Converted amounts (≈) assume the structure as drawn.

Assays:
[1] = Metabolic stability in human liver microsomes assessed as unbound intrinsic clearance at 0.5 uM measured after 4 hrs; format: ADME, Microsome
[2] = Thermodynamic solubility of the compound at pH 7.4 measured after 48 hrs by UHPLC analysis; format: physicochemical; conditions: buffer, read-out: Therm_solubility

| Compound | CL free [1] [L/h/kg] | solubility thermodynamic at 48 h [2] [µM] |
| --- | --- | --- |
| COCc1cnc([C@H](C)NC(=O)[C@]2(NC(=O)c3cc(Cl)c(Cl)[nH]3)CO[C@H](c3ccccc3)C2)nc1 | 4.7 | 0.82 (≈ 0.425 µg/mL) |
| CN1CCN(CCNC(=O)[C@H](CCc2ccccc2)NC(=O)c2cc(Cl)c(Cl)[nH]2)CC1 | 13 | – |
| CNC(=O)[C@H](CCc1ccccc1)NC(=O)c1cc(C)c[nH]1 | 2.1 | – |
| C[C@H](NC(=O)[C@H](CCc1ccccc1)NC(=O)c1cc(Cl)c(Cl)[nH]1)c1cn2ccsc2n1 | 101 | – |
| O=C(N[C@@H](CCc1ccccc1)C(=O)NCC1(O)CCOCC1)c1cc(Cl)c(Cl)[nH]1 | 6.8 | – |
| CC(=O)N1CCO[C@H](CNC(=O)[C@H](CCc2ccccc2)NC(=O)c2cc(Cl)c(Cl)[nH]2)C1 | 3.4 | – |
| C[C@H](NC(=O)[C@H](CCc1ccccc1)NC(=O)c1cc(Cl)c(Cl)[nH]1)c1nc2cnccc2s1 | 30 | – |
| CN1C(=O)[C@@H](NC(=O)[C@@H](NC(=O)c2cc(Cl)c(Cl)[nH]2)C2CCCCC2)COc2ccccc21 | 360 | – |
| O=C(N[C@@H](CCc1ccccc1)C(=O)NC[C@H]1COCCO1)c1cc(Cl)c(Cl)[nH]1 | 5.9 | – |
| O=C(N[C@H](C(=O)NCc1cn2cccnc2n1)[C@H]1C[C@@H]1c1ccccc1)c1cc(Cl)c(Cl)[nH]1 | 32 | – |
| O=C(N[C@@H](CCc1ccccc1)C(=O)NCc1ccccc1)c1cc(Cl)c(Cl)[nH]1 | 92 | 145 (≈ 62.4 µg/mL) |
| O=C(N[C@@H](CCc1ccccc1)C(=O)NC1(c2cn3cccnc3n2)CC1)c1cc(Cl)c(Cl)[nH]1 | 3.5 | – |
| CC(=O)N1CCO[C@@H](CNC(=O)[C@H](CCc2ccccc2)NC(=O)c2cc(Cl)c(Cl)[nH]2)C1 | 4.2 | – |
| C[C@H](NC(=O)[C@]1(NC(=O)c2cc(Cl)c(Cl)[nH]2)CO[C@H](c2ccccc2)C1)c1ncc2c(n1)CN(CC(F)F)C2 | 3.3 | 7.2 (≈ 4.17 µg/mL) |
| O=C(N[C@@H](CCc1ccccc1)C(=O)NCC1(CO)CCOCC1)c1cc(Cl)c(Cl)[nH]1 | 8.1 | – |
| COCc1cccc([C@@H]2C[C@](NC(=O)c3cc(Cl)c(Cl)[nH]3)(C(=O)N[C@@H](C)c3ncc4c(n3)CN(C3CCN(C)CC3)C4)CO2)c1 | < 2.1 | 660 (≈ 433 µg/mL) |
| O=C(CN1C(=O)[C@@H](NC(=O)[C@@H](NC(=O)c2cc(Cl)c(Cl)[nH]2)C2CCCCC2)CSc2ccccc21)Nc1ccccc1 | 2100 | – |
| O=C(N[C@@H](CCc1ccccc1)C(=O)NC[C@@H]1COCCO1)c1cc(Cl)c(Cl)[nH]1 | 3.6 | – |
| CNC(=O)[C@@H]1C[C@@H](c2ccccc2)CN1C(=O)c1cc(Cl)c(Cl)[nH]1 | 5.1 | – |
| CNC(=O)[C@@H](NC(=O)c1cc(Cl)c(Cl)[nH]1)C1CCCCC1 | 5.4 | – |
| O=C(N[C@@H](CCc1ccccc1)C(=O)NCCC1(O)CCOCC1)c1cc(Cl)c(Cl)[nH]1 | 9.6 | – |
| C[C@H](NC(=O)[C@H](CCc1ccccc1)NC(=O)c1cc(Cl)c(Cl)[nH]1)c1cn2cccnc2n1 | 12 | – |

| Compound | CL free [1] [L/h/kg] | solubility thermodynamic at 48 h [2] [µM] |
| --- | --- | --- |
| O=C(N[C@]1(C(=O)NCc2cn3cccnc3n2)CO[C@H](c2ccccc2)C1)c1cc(Cl)c(Cl)[nH]1 | 2.6 | – |
| C[C@H](NC(=O)[C@H](CCc1ccccc1)NC(=O)c1cc(Cl)c(Cl)[nH]1)c1cn2nccnc2n1 | 12 | – |
| O=C(N[C@@H](CCc1ccccc1)C(=O)NCc1ncc2c(n1)COC2)c1cc(Cl)c(Cl)[nH]1 | 11 | 8 (≈ 3.79 µg/mL) |
| C[C@H](NC(=O)[C@H](CCc1ccccc1)NC(=O)c1cc(Cl)c(Cl)[nH]1)c1ncccn1 | 12 | 1.7 (≈ 0.759 µg/mL) |
| C[C@H](NC(=O)[C@]1(NC(=O)c2cc(Cl)c(Cl)[nH]2)CO[C@H](c2ccccc2)C1)c1ncc2c(n1)CN(CC(F)(F)F)C2 | 12 | 5.3 (≈ 3.17 µg/mL) |
| C[C@H](NC(=O)[C@]1(NC(=O)c2cc(Cl)c(Cl)[nH]2)CO[C@H](c2ccccc2)C1)c1ncc2c(n1)CN(C)C2 | 5.3 | 190 (≈ 101 µg/mL) |
| CNC(=O)[C@H](CC(C)(C)C)NC(=O)c1cc(Cl)c(Cl)[nH]1 | < 2 | – |
| O=C(NC(CCc1ccccc1)C(=O)NCc1cnc(N2CCOCC2)nc1)c1cc(Cl)c(Cl)[nH]1 (racemic) | 62 | – |
| C[C@H](NC(=O)[C@]1(NC(=O)c2cc(Cl)c(Cl)[nH]2)CO[C@H](c2ccccc2)C1)c1ncc2c(n1)CNC2 | 13 | 719 (≈ 371 µg/mL) |
| C[C@H](NC(=O)[C@]1(NC(=O)c2cc(Cl)c(Cl)[nH]2)CO[C@H](c2ccccc2)C1)c1ncc2c(n1)CN([C@H]1CCN(C)C1)C2 | < 2.7 | > 1000 |
| CC[C@H](NC(=O)[C@H](CCc1ccccc1)NC(=O)c1cc(Cl)c(Cl)[nH]1)c1cn2cccnc2n1 | 7.5 | – |
| O=C(N[C@@H](CCc1ccccc1)C(=O)NCc1ncccn1)c1cc(Cl)c(Cl)[nH]1 | 2.8 | 25 (≈ 10.8 µg/mL) |
| COCc1cnc(CNC(=O)[C@H](CCc2ccccc2)NC(=O)c2cc(Cl)c(Cl)[nH]2)nc1 | 10 | 5.7 (≈ 2.72 µg/mL) |
| C[C@H](NC(=O)[C@H](CCc1ccccc1)NC(=O)c1cc(Cl)c(Cl)[nH]1)c1cn2ccoc2n1 | 20 | – |
| O=C(N[C@H](C(=O)NCc1cn2cccnc2n1)C1Cc2ccccc2C1)c1cc(Cl)c(Cl)[nH]1 | 7 | – |
| O=C(N[C@@H](CCc1ccccc1)C(=O)NCc1cccnc1)c1cc(Cl)c(Cl)[nH]1 | 78 | 230 (≈ 99.2 µg/mL) |
| C[C@H](NC(=O)[C@]1(NC(=O)c2cc(Cl)c(Cl)[nH]2)CO[C@H](c2ccccc2)C1)c1cnc2c(n1)COC2 | 11 | 60 (≈ 31 µg/mL) |
| O=C(N[C@H](C(=O)NCc1cn2cccnc2n1)[C@@H]1CCc2ccccc2C1)c1cc(Cl)c(Cl)[nH]1 | 63 | – |
| CC(C)(NC(=O)[C@H](CCc1ccccc1)NC(=O)c1cc(Cl)c(Cl)[nH]1)c1cn2cccnc2n1 | 21 | – |
| O=C(N[C@@H](CCc1ccccc1)C(=O)NCc1ncc(C2CCOCC2)cn1)c1cc(Cl)c(Cl)[nH]1 | 20 | 2.5 (≈ 1.29 µg/mL) |
| O=C(N[C@H](C(=O)NCc1cn2cccnc2n1)[C@@H]1C[C@H]1c1ccccc1)c1cc(Cl)c(Cl)[nH]1 | 13 | – |
| C[C@@H](NC(=O)[C@H](CCc1ccccc1)NC(=O)c1cc(Cl)c(Cl)[nH]1)c1cn2cccnc2n1 | 16 | – |

| Compound | CL free [1] [L/h/kg] | solubility thermodynamic at 48 h [2] [µM] |
| --- | --- | --- |
| O=C(NC(CCc1ccccc1)C(=O)NCc1cn2cccnc2n1)c1cc(Cl)c(Cl)[nH]1 (racemic) | 13 | – |
| O=C(NC(CCc1ccccc1)C(=O)NCc1cn2ccsc2n1)c1cc(Cl)c(Cl)[nH]1 (racemic) | 67 | – |
| O=C(N[C@@H](CCc1ccccc1)C(=O)N[C@@H](CO)c1cn2cccnc2n1)c1cc(Cl)c(Cl)[nH]1 | 56.3 | – |
| C[C@H](NC(=O)[C@]1(NC(=O)c2cc(Cl)c(Cl)[nH]2)CO[C@H](c2ccccc2)C1)c1ncc2c(n1)CN(C1CN(C)C1)C2 | < 1.6 | 600 (≈ 351 µg/mL) |
| CNC(=O)[C@@H](NC(=O)c1cc(Cl)c(Cl)[nH]1)C1Cc2ccccc2C1 | 8.7 | – |
| O=C(NC(CCc1ccccc1)C(=O)NCc1cccnc1N1CCOCC1)c1cc(Cl)c(Cl)[nH]1 (racemic) | 49 | – |
| O=C(NC1(C(=O)NCc2cn3cccnc3n2)Cc2ccccc2C1)c1cc(Cl)c(Cl)[nH]1 | 6.9 | – |
| C[C@H](NC(=O)[C@]1(NC(=O)c2cc(Cl)c(Cl)[nH]2)CO[C@H](c2ccccc2)C1)c1ncc2c(n1)CN(CC#N)C2 | 7 | 61 (≈ 33.8 µg/mL) |
| C[C@H](NC(=O)[C@]1(NC(=O)c2cc(Cl)c(Cl)[nH]2)CO[C@H](c2ccccc2)C1)c1cc2c(nn1)COC2 | 6.1 | 31 (≈ 16 µg/mL) |
| O=C(N[C@@H](CCc1ccccc1)C(=O)NCc1cn2cccnc2n1)c1cc(Cl)c(Cl)[nH]1 | 14 | – |
| COC[C@H](NC(=O)[C@H](CCc1ccccc1)NC(=O)c1cc(Cl)c(Cl)[nH]1)c1cn2cccnc2n1 | 6.4 | – |
| O=C(N[C@@H](CCc1ccccc1)C(=O)NCc1ncc2c(n1)CCC2)c1cc(Cl)c(Cl)[nH]1 | 66 | 27 (≈ 12.8 µg/mL) |
| O=C(N[C@]1(C(=O)NCc2cn3cccnc3n2)CO[C@@H](c2ccccc2)C1)c1cc(Cl)c(Cl)[nH]1 | < 2.1 | – |
| CNC(=O)[C@H](CCc1ccccc1)NC(=O)c1cc(Cl)c(Cl)[nH]1 | < 2.4 | – |
| C[C@H](NC(=O)[C@]1(NC(=O)c2cc(Cl)c(Cl)[nH]2)CO[C@H](c2ccccc2)C1)c1ncc(CO)cn1 | < 1.7 | 67 (≈ 33.8 µg/mL) |
| C[C@H](NC(=O)[C@]1(NC(=O)c2cc(Cl)c(Cl)[nH]2)CO[C@H](c2ccccc2)C1)c1ncc2c(n1)CN(C1COC1)C2 | < 1.7 | 280 (≈ 160 µg/mL) |
| COc1cccc([C@@H]2C[C@](NC(=O)c3cc(Cl)c(Cl)[nH]3)(C(=O)N[C@@H](C)c3ncc4c(n3)CN(C3CCN(C)CC3)C4)CO2)c1 | < 2.5 | 532 (≈ 342 µg/mL) |
| C[C@H](NC(=O)[C@]1(NC(=O)c2cc(Cl)c(Cl)[nH]2)CO[C@H](c2ccccc2)C1)c1ncc2c(n1)CCC2 | 20 | 3.8 (≈ 1.95 µg/mL) |
| C[C@H](NC(=O)[C@]1(NC(=O)c2cc(Cl)c(Cl)[nH]2)CO[C@H](c2ccccc2)C1)c1ncc2c(n1)CN(CCC(F)(F)F)C2 | 11 | – |
| O=C(N[C@@]1(C(=O)NCc2cn3cccnc3n2)CO[C@@H](c2ccccc2)C1)c1cc(Cl)c(Cl)[nH]1 | 6.9 | – |
| O=C(N[C@@]1(C(=O)NCc2cn3cccnc3n2)CO[C@H](c2ccccc2)C1)c1cc(Cl)c(Cl)[nH]1 | 3.8 | – |
| O=C(N[C@H](C(=O)NCc1cn2cccnc2n1)[C@H]1CCc2ccccc2C1)c1cc(Cl)c(Cl)[nH]1 | 40 | – |
